{"source": "ChEMBL document CHEMBL4396965", "type_in_all_cases": "cell-based", "key": {"[1]": {"assay": "(§1) Cytotoxicity against human PBMC cells", "settings": "PBMC cells"}, "CCRF-CEM": {"system": "CCRF-CEM", "assay": "Cytotoxicity against human CEM cells"}, "Vero": {"system": "Vero", "assay": "Cytotoxicity against African green monkey Vero cells", "settings": "chlorocebus sabaeus"}, "Huh-7": {"system": "Huh-7", "assay": "Cytotoxicity against human HuH7 cells"}, "PBMC": {"system": "PBMC", "assay": "as §1", "settings": "pbmc"}, "A549": {"system": "A549", "assay": "Cytotoxicity against human A549 cells"}}}
{"smiles": "O=C(O)[C@H]1C2C=CC(CC2)[C@@H]1Nc1nc(-c2c[nH]c3ncc(F)cc23)ncc1F", "note": "(some centres not stated)", "values": [{"measurement": "CC50", "setting": "[1]", "value": "> 100", "unit": "µM"}, {"measurement": "CC50", "setting": "CCRF-CEM", "value": 91.1, "unit": "µM"}, {"measurement": "CC50", "setting": "Vero", "value": "> 100", "unit": "µM"}]}
{"smiles": "O=C(O)[C@H]1C2C=CC(CC2)[C@@H]1Nc1nc(-c2n[nH]c3ncc(F)cc23)ncc1F", "note": "(some centres not stated)", "values": [{"measurement": "CC50", "setting": "Huh-7", "value": 83, "unit": "µM"}, {"measurement": "CC50", "setting": "PBMC", "value": "> 100", "unit": "µM"}, {"measurement": "CC50", "setting": "CCRF-CEM", "value": 48.9, "unit": "µM"}, {"measurement": "CC50", "setting": "Vero", "value": "> 100", "unit": "µM"}, {"measurement": "CC50", "setting": "A549", "value": 30.6, "unit": "µM"}]}
{"smiles": "O=C(O)[C@H]1C2C=CC(CC2)[C@@H]1Nc1nc(-c2n[nH]c3ncc(F)cc23)nc2sccc12", "note": "(some centres not stated)", "values": [{"measurement": "CC50", "setting": "Huh-7", "value": 62.7, "unit": "µM"}, {"measurement": "CC50", "setting": "PBMC", "value": "> 100", "unit": "µM"}, {"measurement": "CC50", "setting": "CCRF-CEM", "value": 13.7, "unit": "µM"}, {"measurement": "CC50", "setting": "Vero", "value": "> 100", "unit": "µM"}, {"measurement": "CC50", "setting": "A549", "value": "> 100", "unit": "µM"}]}
{"smiles": "O=C(O)[C@H]1C2C=CC(CC2)[C@@H]1Nc1nc2cnc(-c3c[nH]c4ncc(F)cc34)nc2s1", "note": "(some centres not stated)", "values": [{"measurement": "CC50", "setting": "Huh-7", "value": 70.2, "unit": "µM"}, {"measurement": "CC50", "setting": "PBMC", "value": 84.8, "unit": "µM"}, {"measurement": "CC50", "setting": "CCRF-CEM", "value": 17.3, "unit": "µM"}, {"measurement": "CC50", "setting": "Vero", "value": 86.1, "unit": "µM"}, {"measurement": "CC50", "setting": "A549", "value": 31.3, "unit": "µM"}]}
{"smiles": "Cc1csc2c(N[C@H]3C4C=CC(CC4)[C@@H]3C(=O)O)nc(-c3c[nH]c4ncc(F)cc34)nc12", "note": "(some centres not stated)", "values": [{"measurement": "CC50", "setting": "Huh-7", "value": "> 100", "unit": "µM"}, {"measurement": "CC50", "setting": "PBMC", "value": "> 100", "unit": "µM"}, {"measurement": "CC50", "setting": "CCRF-CEM", "value": "> 100", "unit": "µM"}, {"measurement": "CC50", "setting": "Vero", "value": "> 100", "unit": "µM"}, {"measurement": "CC50", "setting": "A549", "value": "> 100", "unit": "µM"}]}
{"smiles": "O=C(O)[C@H]1C2C=CC(CC2)[C@@H]1Nc1nc(-c2c[nH]c3ncc(F)cc23)nc2ccsc12", "note": "(some centres not stated)", "values": [{"measurement": "CC50", "setting": "Huh-7", "value": 68.7, "unit": "µM"}, {"measurement": "CC50", "setting": "PBMC", "value": 64.6, "unit": "µM"}, {"measurement": "CC50", "setting": "CCRF-CEM", "value": 31.6, "unit": "µM"}, {"measurement": "CC50", "setting": "Vero", "value": 74.9, "unit": "µM"}, {"measurement": "CC50", "setting": "A549", "value": 14.7, "unit": "µM"}]}
{"smiles": "Cn1cnc2c(N[C@H]3C4C=CC(CC4)[C@@H]3C(=O)O)nc(-c3c[nH]c4ncc(F)cc34)nc21", "note": "(some centres not stated)", "values": [{"measurement": "CC50", "setting": "Huh-7", "value": "> 100", "unit": "µM"}, {"measurement": "CC50", "setting": "PBMC", "value": "> 100", "unit": "µM"}, {"measurement": "CC50", "setting": "CCRF-CEM", "value": 29.1, "unit": "µM"}, {"measurement": "CC50", "setting": "Vero", "value": "> 100", "unit": "µM"}, {"measurement": "CC50", "setting": "A549", "value": "≥ 100", "unit": "µM"}]}
{"smiles": "Cn1cnc2nc(-c3c[nH]c4ncc(F)cc34)nc(N[C@H]3C4C=CC(CC4)[C@@H]3C(=O)O)c21", "note": "(some centres not stated)", "values": [{"measurement": "CC50", "setting": "Huh-7", "value": "> 100", "unit": "µM"}, {"measurement": "CC50", "setting": "PBMC", "value": "> 100", "unit": "µM"}, {"measurement": "CC50", "setting": "CCRF-CEM", "value": "> 100", "unit": "µM"}, {"measurement": "CC50", "setting": "Vero", "value": "> 100", "unit": "µM"}, {"measurement": "CC50", "setting": "A549", "value": "> 100", "unit": "µM"}]}
{"smiles": "O=C(O)C12CC3CC(CC(Nc4nc(-c5c[nH]c6ncc(F)cc56)ncc4F)(C3)C1)C2", "values": [{"measurement": "CC50", "setting": "Huh-7", "value": 14.3, "unit": "µM"}, {"measurement": "CC50", "setting": "PBMC", "value": 23.1, "unit": "µM"}, {"measurement": "CC50", "setting": "CCRF-CEM", "value": 10.1, "unit": "µM"}, {"measurement": "CC50", "setting": "Vero", "value": 30.3, "unit": "µM"}, {"measurement": "CC50", "setting": "A549", "value": 16.2, "unit": "µM"}]}
{"smiles": "O=C(O)[C@H]1C2C=CC(C2)[C@@H]1Nc1nc(-c2c[nH]c3ncc(F)cc23)ncc1F", "note": "(some centres not stated)", "values": [{"measurement": "CC50", "setting": "Huh-7", "value": "> 100", "unit": "µM"}, {"measurement": "CC50", "setting": "PBMC", "value": "> 100", "unit": "µM"}, {"measurement": "CC50", "setting": "CCRF-CEM", "value": "> 100", "unit": "µM"}, {"measurement": "CC50", "setting": "Vero", "value": "> 100", "unit": "µM"}, {"measurement": "CC50", "setting": "A549", "value": "> 100", "unit": "µM"}]}
{"smiles": "O=C(O)[C@H]1C2C=CC(CC2)[C@@H]1Nc1nc(-c2c[nH]c3ncc(F)cc23)nc2sccc12", "note": "(some centres not stated)", "values": [{"measurement": "CC50", "setting": "Huh-7", "value": 24, "unit": "µM"}, {"measurement": "CC50", "setting": "PBMC", "value": 9.3, "unit": "µM"}, {"measurement": "CC50", "setting": "CCRF-CEM", "value": 4.2, "unit": "µM"}, {"measurement": "CC50", "setting": "Vero", "value": 65.9, "unit": "µM"}, {"measurement": "CC50", "setting": "A549", "value": 14.5, "unit": "µM"}]}
{"smiles": "O=C(O)[C@H]1C2CCC(C3CC32)[C@@H]1Nc1nc(-c2c[nH]c3ncc(F)cc23)ncc1F", "note": "(some centres not stated)", "values": [{"measurement": "CC50", "setting": "PBMC", "value": "> 100", "unit": "µM"}, {"measurement": "CC50", "setting": "CCRF-CEM", "value": 62.9, "unit": "µM"}, {"measurement": "CC50", "setting": "Vero", "value": "> 100", "unit": "µM"}, {"measurement": "CC50", "setting": "A549", "value": 94.6, "unit": "µM"}]}
{"smiles": "O=C(O)[C@H]1C2CCC(CC2)[C@@H]1Nc1nc(-c2c[nH]c3ncc(F)cc23)ncc1F", "note": "[PIMODIVIR]", "values": [{"measurement": "CC50", "setting": "Huh-7", "value": 95.8, "unit": "µM"}, {"measurement": "CC50", "setting": "PBMC", "value": "> 100", "unit": "µM"}, {"measurement": "CC50", "setting": "CCRF-CEM", "value": 48.9, "unit": "µM"}, {"measurement": "CC50", "setting": "Vero", "value": "> 100", "unit": "µM"}, {"measurement": "CC50", "setting": "A549", "value": 20, "unit": "µM"}]}
{"smiles": "O=C(O)[C@H]1C2C=CC(CC2)[C@@H]1c1nnc2c(F)cnc(-c3c[nH]c4ncc(F)cc34)n12", "note": "(some centres not stated)", "values": [{"measurement": "CC50", "setting": "Huh-7", "value": "≥ 100", "unit": "µM"}, {"measurement": "CC50", "setting": "PBMC", "value": "≥ 100", "unit": "µM"}, {"measurement": "CC50", "setting": "CCRF-CEM", "value": 41.7, "unit": "µM"}, {"measurement": "CC50", "setting": "Vero", "value": "≥ 100", "unit": "µM"}, {"measurement": "CC50", "setting": "A549", "value": 65.4, "unit": "µM"}]}
{"smiles": "O=C(O)[C@H]1C2C=CC(CC2)[C@@H]1Nc1cc2nncn2c(-c2c[nH]c3ncc(F)cc23)n1", "note": "(some centres not stated)", "values": [{"measurement": "CC50", "setting": "Huh-7", "value": 71, "unit": "µM"}, {"measurement": "CC50", "setting": "PBMC", "value": "> 100", "unit": "µM"}, {"measurement": "CC50", "setting": "CCRF-CEM", "value": 30.8, "unit": "µM"}, {"measurement": "CC50", "setting": "Vero", "value": "> 100", "unit": "µM"}, {"measurement": "CC50", "setting": "A549", "value": 51.9, "unit": "µM"}]}
{"smiles": "Cc1cc2nc(-c3c[nH]c4ncc(F)cc34)nc(N[C@H]3C4C=CC(CC4)[C@@H]3C(=O)O)c2s1", "note": "(some centres not stated)", "values": [{"measurement": "CC50", "setting": "Huh-7", "value": 31.2, "unit": "µM"}, {"measurement": "CC50", "setting": "PBMC", "value": 78.4, "unit": "µM"}, {"measurement": "CC50", "setting": "CCRF-CEM", "value": 12.9, "unit": "µM"}, {"measurement": "CC50", "setting": "Vero", "value": 90.3, "unit": "µM"}, {"measurement": "CC50", "setting": "A549", "value": 41.7, "unit": "µM"}]}
{"smiles": "O=C(O)[C@H]1C2C=CC(CC2)[C@@H]1Nc1nc(-c2n[nH]c3ncc(F)cc23)nc2ccsc12", "note": "(some centres not stated)", "values": [{"measurement": "CC50", "setting": "Huh-7", "value": 70.7, "unit": "µM"}, {"measurement": "CC50", "setting": "PBMC", "value": "> 100", "unit": "µM"}, {"measurement": "CC50", "setting": "CCRF-CEM", "value": 67, "unit": "µM"}, {"measurement": "CC50", "setting": "Vero", "value": 52.5, "unit": "µM"}, {"measurement": "CC50", "setting": "A549", "value": 32.5, "unit": "µM"}]}
